Results on eight compounds are retold here after patent publication US20230117034A1, “PYRAZOLOTRIAZINES” (Bayer Aktiengesellschaft, priority 2019, published 2023).

pIC50: −log10 of the molar value.

The target in test [1] is T1, CDK12 (nuclear staining in CAL-120 cells) (Homo sapiens, UniProt Q9NYV4).
T1 construct: endogenous in cells; host or cells: CAL-120 human breast cancer cells (DSMZ ACC 459)
Kind of test: CDK12 nuclear protein level: immunofluorescence/high content analysis (CAL-120). It is filed as cell-based. Conditions: for DC50: CAL-120 cells, 24 h, immunofluorescence, 50% reduction of nuclear CDK12 staining intensity, median, read-out: CDK12 degradation IF, DC50- [mol/l] (median); for (IC50 CDK12 high ATP) to (Degradation DC50 CDK12) ratio: ratio of IC50 CDK12 high ATP kinase assay to DC50 CDK12 degradation (IF, CAL-120). In short, it runs like this: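 DC50 is the degrader concentration that halves nuclear CDK12 immunofluorescence relative to controls, measured by high-content imaging. CAL-120 cells were exposed to compound for 24 h at 37 °C before PFA fixation, and signal was normalized to DMSO and control wells.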

In a further test the target is T2, CDK9/CycT1 (Homo sapiens, UniProt P50750).
T2 construct: Recombinant full-length His-tagged human CDK9 and CycT1; purchased Life Technologies PV4131; host or cells: insect cells
Kind of test: CDK9/CycT1 high ATP kinase assay (TR-FRET, 2 mM ATP). It is filed as biochemical. The settings on record: 2 mM ATP (high ATP); median; read-out: CDK9/CyclinT1, 2 mM ATP (high ATP), IC50 (median). In short, it runs like this: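 Full-length His-tagged human CDK9/CycT1 (insect cell, ~0.5 μg/mL) preincubated 15 min at 22 °C with compound in Tris pH 8.0, MgCl2, DTT buffer before reaction with biotinylated peptide substrate at high ATP (2 mM).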
In general terms: TR-FRET usually uses a lanthanide donor and a delayed reading to cut background.

The next test addresses T3, CDK2/CycE (Homo sapiens, UniProt P24941).
T3 construct: purchased ProQinase GmbH (Freiburg, Germany); host or cells: insect cells (Sf9)
The test is described as follows: CDK2/CycE kinase assay (TR-FRET, 2 mM ATP). In kind it is biochemical. Conditions: 2 mM ATP (high ATP); median; read-out: CDK2/CyclinE, 2 mM ATP (high ATP), IC50 (median). In short, it runs like this:
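Biotin-peptide phosphorylation (0.75 µM substrate, 2 mM ATP final, 25 min, 22 °C) by Sf9-expressed GST-CDK2/GST-CycE, after a 15-min compound pre-binding step. Inhibition scaled between enzyme-free (100%) and uninhibited (0%) wells.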

T2 sequence (P50750 whole entry): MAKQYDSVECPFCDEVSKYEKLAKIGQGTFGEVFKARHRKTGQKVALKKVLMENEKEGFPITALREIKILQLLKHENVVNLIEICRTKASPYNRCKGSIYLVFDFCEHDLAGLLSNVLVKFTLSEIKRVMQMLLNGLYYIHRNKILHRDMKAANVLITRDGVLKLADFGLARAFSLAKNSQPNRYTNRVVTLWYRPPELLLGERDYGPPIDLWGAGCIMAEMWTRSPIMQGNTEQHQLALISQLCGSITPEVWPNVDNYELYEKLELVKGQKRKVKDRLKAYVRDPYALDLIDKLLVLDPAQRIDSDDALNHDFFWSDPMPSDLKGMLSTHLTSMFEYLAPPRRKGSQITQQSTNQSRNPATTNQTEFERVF
T2 sequence (O60563 whole entry partner): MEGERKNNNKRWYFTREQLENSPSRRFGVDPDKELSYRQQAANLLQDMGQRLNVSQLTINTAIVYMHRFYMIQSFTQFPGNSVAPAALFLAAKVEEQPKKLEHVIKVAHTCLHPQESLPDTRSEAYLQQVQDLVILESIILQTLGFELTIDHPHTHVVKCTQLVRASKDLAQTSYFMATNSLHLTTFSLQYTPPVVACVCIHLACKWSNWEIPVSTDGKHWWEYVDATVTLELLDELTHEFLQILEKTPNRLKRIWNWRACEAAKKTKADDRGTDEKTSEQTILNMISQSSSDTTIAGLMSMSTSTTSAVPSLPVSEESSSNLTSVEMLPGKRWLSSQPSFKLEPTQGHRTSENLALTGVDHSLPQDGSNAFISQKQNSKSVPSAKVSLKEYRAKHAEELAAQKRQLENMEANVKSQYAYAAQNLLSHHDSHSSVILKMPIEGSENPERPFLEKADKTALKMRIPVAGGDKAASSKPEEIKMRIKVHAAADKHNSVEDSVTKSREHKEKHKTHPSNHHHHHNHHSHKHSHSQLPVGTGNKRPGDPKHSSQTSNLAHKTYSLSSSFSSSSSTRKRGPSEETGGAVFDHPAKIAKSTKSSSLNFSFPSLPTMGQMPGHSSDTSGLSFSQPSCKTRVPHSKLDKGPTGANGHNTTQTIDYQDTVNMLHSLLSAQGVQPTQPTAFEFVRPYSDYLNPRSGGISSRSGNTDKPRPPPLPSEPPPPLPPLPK
T1 sequence (Q9NYV4 whole entry): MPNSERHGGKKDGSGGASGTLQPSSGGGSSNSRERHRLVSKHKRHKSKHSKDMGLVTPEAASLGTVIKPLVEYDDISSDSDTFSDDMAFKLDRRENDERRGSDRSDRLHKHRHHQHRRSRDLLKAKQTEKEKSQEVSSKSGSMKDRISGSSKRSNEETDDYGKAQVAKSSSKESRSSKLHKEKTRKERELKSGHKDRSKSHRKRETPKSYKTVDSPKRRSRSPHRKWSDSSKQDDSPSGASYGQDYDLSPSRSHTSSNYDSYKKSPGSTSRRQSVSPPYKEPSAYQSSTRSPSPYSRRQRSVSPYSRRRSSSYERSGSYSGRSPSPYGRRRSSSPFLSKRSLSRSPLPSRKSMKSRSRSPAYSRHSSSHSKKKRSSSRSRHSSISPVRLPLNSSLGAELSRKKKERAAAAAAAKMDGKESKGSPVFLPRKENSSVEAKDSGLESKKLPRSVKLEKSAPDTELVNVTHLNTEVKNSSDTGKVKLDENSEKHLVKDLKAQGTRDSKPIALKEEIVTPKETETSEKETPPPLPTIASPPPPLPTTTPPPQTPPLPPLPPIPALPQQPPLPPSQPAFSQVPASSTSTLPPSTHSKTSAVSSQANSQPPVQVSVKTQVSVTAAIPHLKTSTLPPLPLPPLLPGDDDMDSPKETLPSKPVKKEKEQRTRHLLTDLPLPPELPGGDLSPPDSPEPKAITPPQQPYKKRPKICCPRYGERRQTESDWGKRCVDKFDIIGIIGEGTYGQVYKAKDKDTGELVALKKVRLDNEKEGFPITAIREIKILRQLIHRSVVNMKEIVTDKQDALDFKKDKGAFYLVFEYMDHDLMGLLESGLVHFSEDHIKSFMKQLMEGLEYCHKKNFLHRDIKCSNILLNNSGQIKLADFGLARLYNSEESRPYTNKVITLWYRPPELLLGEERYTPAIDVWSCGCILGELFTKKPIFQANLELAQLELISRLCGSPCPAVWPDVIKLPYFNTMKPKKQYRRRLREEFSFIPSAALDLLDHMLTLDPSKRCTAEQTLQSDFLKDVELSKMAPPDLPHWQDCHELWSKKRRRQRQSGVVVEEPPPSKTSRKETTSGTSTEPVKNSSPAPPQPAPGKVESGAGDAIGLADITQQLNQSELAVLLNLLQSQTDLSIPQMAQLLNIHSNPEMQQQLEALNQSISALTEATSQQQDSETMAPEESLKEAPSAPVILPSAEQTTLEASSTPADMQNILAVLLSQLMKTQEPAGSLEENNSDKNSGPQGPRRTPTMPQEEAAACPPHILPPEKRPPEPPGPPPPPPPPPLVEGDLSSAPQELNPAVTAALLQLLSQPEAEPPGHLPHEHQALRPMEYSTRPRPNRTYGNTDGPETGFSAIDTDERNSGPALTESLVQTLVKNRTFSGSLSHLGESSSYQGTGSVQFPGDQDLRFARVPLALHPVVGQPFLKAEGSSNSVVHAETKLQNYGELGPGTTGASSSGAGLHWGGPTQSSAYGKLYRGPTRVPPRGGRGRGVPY
T1 sequence (O75909 whole entry partner): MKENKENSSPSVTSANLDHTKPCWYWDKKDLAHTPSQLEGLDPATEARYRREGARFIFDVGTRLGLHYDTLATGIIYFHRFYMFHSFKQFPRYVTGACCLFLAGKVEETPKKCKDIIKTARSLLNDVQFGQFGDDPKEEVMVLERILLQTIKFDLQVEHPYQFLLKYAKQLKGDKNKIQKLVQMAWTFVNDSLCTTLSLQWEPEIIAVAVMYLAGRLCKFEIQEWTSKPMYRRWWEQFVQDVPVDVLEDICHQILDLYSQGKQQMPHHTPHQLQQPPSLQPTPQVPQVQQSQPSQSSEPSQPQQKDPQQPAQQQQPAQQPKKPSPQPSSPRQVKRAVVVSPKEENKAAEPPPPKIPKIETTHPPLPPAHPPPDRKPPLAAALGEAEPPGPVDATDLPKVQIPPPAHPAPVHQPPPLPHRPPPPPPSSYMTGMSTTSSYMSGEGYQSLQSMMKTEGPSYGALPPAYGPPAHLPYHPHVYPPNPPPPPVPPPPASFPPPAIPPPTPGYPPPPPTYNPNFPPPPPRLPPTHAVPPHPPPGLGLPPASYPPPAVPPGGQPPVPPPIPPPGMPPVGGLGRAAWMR

Regarding `OC[C@@H]1CCCCN1c1nc(NCc2nc3ccccc3[nH]2)n2ncc(Br)c2n1` [Example 59, [(2S)-1-(4-{[(1H-benzimidazol-2-yl)methyl]amino}-8-bromopyrazolo[1,5-a][1,3,5]triazin-2-yl)piperidin-2-yl]methanol], in test [1], the DC50 was determined as 5.26 nM and the “(IC50 CDK12 high ATP) to (Degradation DC50 CDK12) ratio” value was determined as 104. Besides, the pIC50 on CDK9/CycT1 is 4.97. At CDK2/CycE, the pIC50 is 5.98.

`O=C(O)C(F)(F)F.c1ccc2[nH]c(CNc3nc(N4CCOCC4)nc4c(-c5ccnnc5)cnn34)nc2c1` [Example 438, trifluoroacetic acid N-[(1H-benzimidazol-2-yl)methyl]-2-(morpholin-4-yl)-8-(pyridazin-4-yl)pyrazolo[1,5-a][1,3,5]triazin-4-amine]: in test [1], the DC50 turned out to be 138 nM and the “(IC50 CDK12 high ATP) to (Degradation DC50 CDK12) ratio” value is over 57. Also, the pIC50 at CDK9/CycT1 is under 4.70. Further, the pIC50 on CDK2/CycE is under 4.70.

Take `N#Cc1cccc(-c2c[nH]c(CNc3nc(N4CCOCC4)nc4c(Br)cnn34)n2)c1` [Example 42, 3-[2-({[8-bromo-2-(morpholin-4-yl)pyrazolo[1,5-a][1,3,5]triazin-4-yl]amino}methyl)-1H-imidazol-4-yl]benzonitrile]: the DC50 in test [1] came to 1.25 nM. In addition, the “(IC50 CDK12 high ATP) to (Degradation DC50 CDK12) ratio” value in test [1] is 324. Moreover, the results for the pIC50 at CDK9/CycT1 and at CDK2/CycE were 6.03 and 5.99, respectively.

Take `C[C@H]1COCCN1c1nc(NCc2nc3ccccc3[nH]2)n2ncc(Br)c2n1` [Example 57, N-[(1H-benzimidazol-2-yl)methyl]-8-bromo-2-[(3S)-3-methylmorpholin-4-yl]pyrazolo[1,5-a][1,3,5]triazin-4-amine]: in test [1], the DC50 was 1.55 nM and the “(IC50 CDK12 high ATP) to (Degradation DC50 CDK12) ratio” value is on record as 669. Further, the pIC50 on CDK9/CycT1 was 5.18. Besides, on CDK2/CycE, the pIC50 was 5.91.

In the case of `CCNc1nc(NCc2ncc(-c3ccccc3)[nH]2)n2ncc(C(C)C)c2n1` [Example 34, N^2-ethyl-N^4-[(5-phenyl-1H-imidazol-2-yl)methyl]-8-(propan-2-yl)pyrazolo[1,5-a][1,3,5]triazine-2,4-diamine], in test [1], the DC50 turned out to be 12.7 nM and the “(IC50 CDK12 high ATP) to (Degradation DC50 CDK12) ratio” value is over 449. Also, the pIC50 on CDK9/CycT1 was under 4.70. Moreover, on CDK2/CycE, the pIC50 was 5.21.

`Clc1cc2nc(CNc3nc(N4CCOCC4)nc4c(-c5ccnnc5)cnn34)[nH]c2cc1Cl.O=C(O)C(F)(F)F` [Example 440, trifluoroacetic acid N-[(5,6-dichloro-1H-benzimidazol-2-yl)methyl]-2-(morpholin-4-yl)-8-(pyridazin-4-yl)pyrazolo[1,5-a][1,3,5]triazin-4-amine]: in test [1], the DC50 was 6.67 nM and the “(IC50 CDK12 high ATP) to (Degradation DC50 CDK12) ratio” value is reported as over 2996. Further, at CDK9/CycT1, the pIC50 was under 4.70. Moreover, on CDK2/CycE, the pIC50 was under 4.70.

Consider `Clc1cccc(-c2nnc(CNc3nc(N4CCOCC4)nc4c(Br)cnn34)[nH]2)c1` [Example 51, 8-bromo-N-{[5-(3-chlorophenyl)-4H-1,2,4-triazol-3-yl]methyl}-2-(morpholin-4-yl)pyrazolo[1,5-a][1,3,5]triazin-4-amine], for which the DC50 in test [1] worked out at 7.81 nM. The “(IC50 CDK12 high ATP) to (Degradation DC50 CDK12) ratio” value in test [1] came to 222. Also, the values for the pIC50 at CDK9/CycT1 and on CDK2/CycE were 5.89 and 5.79, respectively.

Turning to `Brc1cnn2c(NCc3nc4ccccc4[nH]3)nc(OC3CCCCC3)nc12` [Example 406, N-[(1H-benzimidazol-2-yl)methyl]-8-bromo-2-(cyclohexyloxy)pyrazolo[1,5-a][1,3,5]triazin-4-amine], in test [1], the DC50 came to 125 nM and the “(IC50 CDK12 high ATP) to (Degradation DC50 CDK12) ratio” value was over 160. Also, the pIC50 on CDK9/CycT1 was under 4.70. The pIC50 at CDK2/CycE was 4.82.
